Earlier results as cited in patent publication US20090312439A1, “USE OF ROLL COMPACTED PYROGENICALLY PRODUCED SILICON DIOXIDE IN PHARMACEUTICAL COMPOSITIONS” (priority 2006, published 2009).

## C#C[C@]1(O)CC[C@H]2[C@@H]3CCc4cc(O)ccc4[C@H]3CC[C@@]21C [ethinyl oestradiol]
Pure active constituent in water, reached only after shaking over several days
  saturation equilibrium value: 1.1 mg/100 ml
Sorbate of 5.2 mg on 100 mg pyrogenic silicic acid (AEROSIL 200)
  release of active constituent on contact with water: supersaturated solution is formed
